Results: patent US20250270213A1, “PI3Ka INHIBITORS” (Synnovation Therapeutics, Inc., priority 2022, published 2025)

These molecules were tested on T47D (PIK3CA H1047R) cells (assay: pS473 AKT assay with 2.5% FBS, T47D cells). Details: Homo sapiens, pSer473 AKT, DMEM with 2.5% FBS, 2 h treatment, read-out: T47D_IC50.
Type: cell-based
Method in brief: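 T47D (PIK3CA H1047R) cells were switched to DMEM with 2.5% FBS and exposed to compounds for 2 h. After paraformaldehyde fixation, pSer473 AKT was detected by in-cell ELISA (rabbit primary, HRP anti-rabbit secondary, chemiluminescence); IC50 values were fitted from the concentration series.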

| SMILES | IC50 |
| --- | --- |
| Cc1cc(C(C)Nc2ccc(Cl)nc2-c2cnn(C)c2)c2c(c1)c(=O)n(C)c1c2cnn1C1CCN(C(=O)N(C)C)CC1 (stereo not drawn) [Example 186, 4-(9-(1-((6-chloro-2-(1-methyl-1H-pyrazol-4-yl)pyridin-3-yl)amino)ethyl)-4,7-dimethyl-5-oxo-4,5-dihydro-3H-pyrazolo[3,4-c]isoquinolin-3-yl)-N,N-dimethylpiperidine-1-carboxamide] | < 1000 nM |
| CC(=O)N1CCC(n2ncc3c4c(C(C)Nc5ccc(Cl)nc5-c5ccc(=O)n(C)c5)cc(C)cc4c(=O)n(C)c32)CC1 (stereo not drawn) [Example 187, 3-(1-acetylpiperidin-4-yl)-9-(1-((6-chloro-1′-methyl-6′-oxo-1′,6′-dihydro-[2,3′-bipyridin]-3-yl)amino)ethyl)-4,7-dimethyl-3,4-dihydro-5H-pyrazolo[3,4-c]isoquinolin-5-one] | < 1000 nM |
| CC(=O)N1CCC(n2ncc3c4c(C(C)Nc5ccc(Cl)nc5-c5ncn(C)n5)cc(C)cc4c(=O)n(C)c32)CC1 (stereo not drawn) [Example 188, 3-(1-acetylpiperidin-4-yl)-9-(1-((6-chloro-2-(1-methyl-1H-1,2,4-triazol-3-yl)pyridin-3-yl)amino)ethyl)-4,7-dimethyl-3,4-dihydro-5H-pyrazolo[3,4-c]isoquinolin-5-one] | < 1000 nM |
| Cc1cc(C(C)Nc2ccc(C)nc2-c2cnn(C)c2)c2c(c1)c(=O)n(C)c1c2cnn1C1CCN(S(C)(=O)=O)CC1 (stereo not drawn) [Example 189, 4,7-dimethyl-9-(1-((6-methyl-2-(1-methyl-1H-pyrazol-4-yl)pyridin-3-yl)amino)ethyl)-3-(1-(methylsulfonyl)piperidin-4-yl)-3,4-dihydro-5H-pyrazolo[3,4-c]isoquinolin-5-one] | < 1000 nM |
| Cc1cc(C(C)Nc2ccc(Cl)nc2-c2ncn(C)n2)c2c(c1)c(=O)n(C)c1c2cnn1C1CCN(S(C)(=O)=O)CC1 (stereo not drawn) [Example 190, 9-(1-((6-chloro-2-(1-methyl-1H-1,2,4-triazol-3-yl)pyridin-3-yl)amino)ethyl)-4,7-dimethyl-3-(1-(methylsulfonyl)piperidin-4-yl)-3,4-dihydro-5H-pyrazolo[3,4-c]isoquinolin-5-one] | < 1000 nM |
| Cc1cc(C(C)Nc2ccc(Cl)nc2-c2ccc3c(c2)CN(C)C3=O)c2c(c1)c(=O)n(C)c1c2cnn1C1CCN(S(C)(=O)=O)CC1 (stereo not drawn) [Example 191, 9-(1-((6-chloro-2-(2-methyl-1-oxoisoindolin-5-yl)pyridin-3-yl)amino)ethyl)-4,7-dimethyl-3-(1-(methylsulfonyl)piperidin-4-yl)-3,4-dihydro-5H-pyrazolo[3,4-c]isoquinolin-5-one] | < 1000 nM |
| Cc1cc(C(C)Nc2ccc(Cl)nc2-c2ccc3ncccc3c2)c2c(c1)c(=O)n(C)c1c2cnn1C1CCN(S(C)(=O)=O)CC1 (stereo not drawn) [Example 192, 9-(1-((6-chloro-2-(quinolin-6-yl)pyridin-3-yl)amino)ethyl)-4,7-dimethyl-3-(1-(methylsulfonyl)piperidin-4-yl)-3,4-dihydro-5H-pyrazolo[3,4-c]isoquinolin-5-one] | < 1000 nM |
| Cc1cc(C(C)Nc2ccc(Cl)nc2-c2cnn(C)c2)c2c(c1)c(=O)n(C)c1c2cnn1C1CCN(C(=O)CO)CC1 (stereo not drawn) [Example 193, 9-[1-[[6-Chloro-2-(1-methylpyrazol-4-yl)-3-pyridyl]amino]ethyl]-3-[1-(2-hydroxyacetyl)-4-piperidyl]-4,7-dimethyl-pyrazolo[3,4-c]isoquinolin-5-one] | < 1000 nM |
| Cc1cc(C(C)Nc2ccc(Cl)nc2-c2ncn(C)n2)c2c(c1)c(=O)n(C)c1c2cnn1C1CCN(C(=O)C2(C#N)CC2)CC1 (stereo not drawn) [Example 194, 1-(4-(9-(1-((6-chloro-2-(1-methyl-1H-1,2,4-triazol-3-yl)pyridin-3-yl)amino)ethyl)-4,7-dimethyl-5-oxo-4,5-dihydro-3H-pyrazolo[3,4-c]isoquinolin-3-yl)piperidine-1-carbonyl)cyclopropane-1-carbonitrile] | < 1000 nM |
| Cc1cc(C(C)Nc2ccc(Cl)nc2-c2ncn(C)n2)c2c(c1)c(=O)n(C)c1c2cnn1C1CCN(C(=O)c2ccnn2C)CC1 (stereo not drawn) [Example 195, 9-(1-((6-chloro-2-(1-methyl-1H-1,2,4-triazol-3-yl)pyridin-3-yl)amino)ethyl)-4,7-dimethyl-3-(1-(1-methyl-1H-pyrazole-5-carbonyl)piperidin-4-yl)-3,4-dihydro-5H-pyrazolo[3,4-c]isoquinolin-5-one] | < 1000 nM |
| Cc1cc(C(C)Nc2ccc(Cl)nc2-c2cnn(C)c2)c2c(c1)c(=O)n(C)c1c2cnn1C1CCN(C(=O)CN(C)C)CC1 (stereo not drawn) [Example 196, 9-(1-((6-chloro-2-(1-methyl-1H-pyrazol-4-yl)pyridin-3-yl)amino)ethyl)-3-(1-(dimethylglycyl)piperidin-4-yl)-4,7-dimethyl-3,4-dihydro-5H-pyrazolo[3,4-c]isoquinolin-5-one] | < 1000 nM |
| Cc1cc(C(C)Nc2ccc(Cl)nc2-c2ncn(C)n2)c2c(c1)c(=O)n(C)c1c2cnn1C1CCN(C(=O)[C@@H]2CCCN2C)CC1 (stereo partly drawn) [Example 197, 9-(1-((6-chloro-2-(1-methyl-1H-1,2,4-triazol-3-yl)pyridin-3-yl)amino)ethyl)-4,7-dimethyl-3-(1-(methyl-L-prolyl)piperidin-4-yl)-3,4-dihydro-5H-pyrazolo[3,4-c]isoquinolin-5-one] | < 1000 nM |
| CC(Nc1ccc(Cl)nc1-c1cnn(C)c1)c1cc(C#N)cc2c(=O)n(C)c3c(cnn3C3CCN(C)CC3)c12 (stereo not drawn) [Example 198, 9-(1-((6-Chloro-2-(1-methyl-1H-pyrazol-4-yl)pyridin-3-yl)amino)ethyl)-4-methyl-3-(1-methylpiperidin-4-yl)-5-oxo-4,5-dihydro-3H-pyrazolo[3,4-c]isoquinoline-7-carbonitrile] | < 1000 nM |
| CCn1c(=O)c2cc(C)cc(C(C)Nc3ccc(Cl)nc3-c3ncn(C)n3)c2c2cn(C3CCOCC3)nc21 (stereo not drawn) [Example 199, 9-(1-((6-Chloro-2-(1-methyl-1H-1,2,4-triazol-3-yl)pyridin-3-yl)amino)ethyl)-4-ethyl-7-methyl-2-(tetrahydro-2H-pyran-4-yl)-2,4-dihydro-5H-pyrazolo[3,4-c]isoquinolin-5-one] | < 1000 nM |
| Cc1cc(C(C)Nc2ccc(Cl)nc2-c2noc(=O)[nH]2)c2c(c1)c(=O)n(C)c1nn(C3CCOCC3)cc21 (stereo not drawn) [Example 200, 3-(6-chloro-3-((1-(4,7-dimethyl-5-oxo-2-(tetrahydro-2H-pyran-4-yl)-4,5-dihydro-2H-pyrazolo[3,4-c]isoquinolin-9-yl)ethyl)amino)pyridin-2-yl)-1,2,4-oxadiazol-5(4H)-one] | < 1000 nM |
| CCn1c(=O)c2cc(C)cc(C(C)Nc3ccc(Cl)nc3-c3ncn(C)n3)c2c2cn(C3CCN(C)CC3)nc21 (stereo not drawn) [Example 201, 9-(1-((6-Chloro-2-(1-methyl-1H-1,2,4-triazol-3-yl)pyridin-3-yl)amino)ethyl)-4-ethyl-7-methyl-2-(1-methylpiperidin-4-yl)-2,4-dihydro-5H-pyrazolo[3,4-c]isoquinolin-5-one] | < 1000 nM |
| CCn1c(=O)c2cc(C)cc(C(C)Nc3ccc(Cl)nc3-c3ncn(C)n3)c2c2cn(C3CCN(C(C)=O)CC3)nc21 (stereo not drawn) [Example 202, 2-(1-Acetylpiperidin-4-yl)-9-(1-((6-chloro-2-(1-methyl-1H-1,2,4-triazol-3-yl)pyridin-3-yl)amino)ethyl)-4-ethyl-7-methyl-2,4-dihydro-5H-pyrazolo[3,4-c]isoquinolin-5-one] | < 1000 nM |
| CCn1c(=O)c2cc(C)cc(C(C)Nc3ccc(Cl)nc3-c3ncn(C)n3)c2c2cn(C3CCN(CCO)CC3)nc21 (stereo not drawn) [Example 203, 9-(1-((6-Chloro-2-(1-methyl-1H-1,2,4-triazol-3-yl)pyridin-3-yl)amino)ethyl)-4-ethyl-2-(1-(2-hydroxyethyl)piperidin-4-yl)-7-methyl-2,4-dihydro-5H-pyrazolo[3,4-c]isoquinolin-5-one] | < 1000 nM |
| CCn1c(=O)c2cc(C)cc(C(C)Nc3ccc(Cl)nc3-c3ncn(C)n3)c2c2cn(C3CCN(CCC#N)CC3)nc21 (stereo not drawn) [Example 204, 3-(4-(9-(1-((6-Chloro-2-(1-methyl-1H-1,2,4-triazol-3-yl)pyridin-3-yl)amino)ethyl)-4-ethyl-7-methyl-5-oxo-4,5-dihydro-2H-pyrazolo[3,4-c]isoquinolin-2-yl)piperidin-1-yl)propanenitrile] | < 1000 nM |
| CCn1c(=O)c2cc(C)cc(C(C)Nc3ccc(Cl)nc3-c3ncn(C)n3)c2c2cn(C3CN(C)C3)nc21 (stereo not drawn) [Example 205, 9-(1-((6-Chloro-2-(1-methyl-1H-1,2,4-triazol-3-yl)pyridin-3-yl)amino)ethyl)-4-ethyl-7-methyl-2-(1-methylazetidin-3-yl)-2,4-dihydro-5H-pyrazolo[3,4-c]isoquinolin-5-one] | < 1000 nM |
| Cc1cc(C(C)Nc2ccc(Cl)nc2-c2cnn(C)c2)c2c(c1)c(=O)n(C)c1nn(C3CCN(C)CC3)cc21 (stereo not drawn) [Example 206, 9-(1-((6-Chloro-2-(1-methyl-1H-pyrazol-4-yl)pyridin-3-yl)amino)ethyl)-4,7-dimethyl-2-(1-methylpiperidin-4-yl)-2,4-dihydro-5H-pyrazolo[3,4-c]isoquinolin-5-one] | < 1000 nM |
| Cc1cc(C(C)Nc2ccc(Cl)nc2-c2cnn(C)c2)c2c(c1)c(=O)n(C)c1nn(C3CCN(C(C)C)CC3)cc21 (stereo not drawn) [Example 207, 9-(1-((6-chloro-2-(1-methyl-1H-pyrazol-4-yl)pyridin-3-yl)amino)ethyl)-2-(1-isopropylpiperidin-4-yl)-4,7-dimethyl-2,4-dihydro-5H-pyrazolo[3,4-c]isoquinolin-5-one] | < 1000 nM |
| Cc1cc(C(C)Nc2ccc(Cl)nc2-c2ncn(C)n2)c2c(c1)c(=O)n(C)c1nn(C3CCN(C)CC3)cc21 (stereo not drawn) [Example 208, 9-(1-((6-chloro-2-(1-methyl-1H-1,2,4-triazol-3-yl)pyridin-3-yl)amino)ethyl)-4,7-dimethyl-2-(1-methylpiperidin-4-yl)-2,4-dihydro-5H-pyrazolo[3,4-c]isoquinolin-5-one] | < 1000 nM |
| CC(=O)N1CCC(n2cc3c4c(C(C)Nc5ccc(Cl)nc5-c5cnn(C)c5)cc(C)cc4c(=O)n(C)c3n2)CC1 (stereo not drawn) [Example 209, 2-(1-Acetylpiperidin-4-yl)-9-(1-((6-chloro-2-(1-methyl-1H-pyrazol-4-yl)pyridin-3-yl)amino)ethyl)-4,7-dimethyl-2,4-dihydro-5H-pyrazolo[3,4-c]isoquinolin-5-one] | < 1000 nM |
